Measured values: patent US7273848B2, “Apolipoprotein A-I agonists and their use to treat dyslipidemic disorders” (priority 1997, dated 2007)
Non-standard residues stand in square brackets, D forms with d. Residues, ends and D or L forms follow the SMILES beside them. No end group written: not given here. Aib = CC(C)(N)C(=O)O

Key:
[1] = target: T1, LCAT (purified from human plasma) (Homo sapiens, UniProt P04180); experiment: LCAT activation assay; assay type: biochemical; details: LCAT activation as compared with native human ApoA-I (= 100%), equivalent masses
T1 construct: from tissue; host or cells: human plasma
T1 sequence (P04180 25-440): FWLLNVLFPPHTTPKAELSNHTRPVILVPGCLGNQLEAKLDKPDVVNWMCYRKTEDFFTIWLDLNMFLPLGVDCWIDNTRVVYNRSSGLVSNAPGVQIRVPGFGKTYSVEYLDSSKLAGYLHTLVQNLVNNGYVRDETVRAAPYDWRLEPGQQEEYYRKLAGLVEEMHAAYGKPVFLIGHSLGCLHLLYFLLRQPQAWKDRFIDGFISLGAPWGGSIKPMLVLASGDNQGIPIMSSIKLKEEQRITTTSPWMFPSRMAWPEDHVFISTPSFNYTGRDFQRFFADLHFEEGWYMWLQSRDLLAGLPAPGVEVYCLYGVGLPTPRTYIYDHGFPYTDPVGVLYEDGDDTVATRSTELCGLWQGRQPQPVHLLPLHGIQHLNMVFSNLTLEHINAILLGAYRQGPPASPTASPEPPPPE
Method in brief: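 Substrate SUVs of EPC or POPC with 14C-cholesterol (20:1 molar ratio), in 10 mM Tris, 0.14 M NaCl, 1 mM EDTA, pH 7.4, were preincubated with peptide or equal mass of plasma ApoA-I. Reaction started with human plasma LCAT; activation was measured as cholesterol-to-ester conversion relative to ApoA-I (100%).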

[2] = Circular dichroism helicity determination; assay type: physicochemical; details: percent helicity; for He (%) TFE: 5 μM peptide, 90% vol TFE; for He (%) TFE / He (%) SUVs: 37° C.; for He (%) free: unbound peptide 5 μM in 5 mM phosphate buffer, pH 7.4, 37° C.; for He (%) SUVs: peptide-SUV complexes (20:1 EPC:Chol., Ri=30 and Ri=50); for He (%) mics: peptide-micelle complexes, Ri=100, 37° C.
Method in brief: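 Far-UV CD (190–260 nm) at 37° C on 5 μM peptide in 5 mM phosphate pH 7.4, free, with EPC:Chol 20:1 SUVs (Ri 30 or 50), lysophosphatidylcholine micelles (Ri 100) or 90% TFE. Spectra converted to molar ellipticity per residue; helicity from 222 nm ellipticity or CONTIN fitting to reference spectra, ±5%.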

| ACTIVITY (%) LCAT [1] [%] | He (%) TFE [2] [%] | He (%) free [2] [%] | He (%) SUVs [2] [%] | He (%) mics [2] [%] | Molecule |
| --- | --- | --- | --- | --- | --- |
| 5 | 81 | 52 | 63 | 85 | CC(C)C[C@@H](NC(=O)[C@@H](C)NC(=O)[C@@H](CCC(=O)O)NC(=O)[C@@H](CC(C)C)NC(=O)C(C)(C)NC(=O)[C@@H](CCC(=O)O)NC(=O)[C@@H](CC(N)=O)NC(=O)[C@@H](CC(C)C)NC(=O)[C@@H](CC(C)C)NC(=O)[C@@H](CCC(=O)O)NC(=O)[C@@H](CCCNC(=N)N)NC(=O)[C@@H](Cc1ccccc1)NC(=O)[C@@H](CC(C)C)NC(=O)[C@@H](CC(=O)O)NC(=O)[C@@H](CC(C)C)NC(=O)[C@H](NC(=O)[C@H]1CCCN1)C(C)C)C(=O)N[C@H](CCCCN)C(=O)N[C@H](CCC(N)=O)C(=O)N[C@H](CCCCN)C(=O)N[C@H](CC(C)C)C(=O)N[C@H](CCCCN)C(=O)O [compound 96, pvldlfrellneXlealkqklk] (H-[dP][dV][dL][dD][dL][dF][dR][dE][dL][dL][dN][dE][Aib][dL][dE][dA][dL][dK][dQ][dK][dL][dK]-OH) |
| 34 | 90 | 49 | – | 98 | CC(C)C[C@H](NC(=O)[C@H](C)NC(=O)[C@H](CCC(=O)O)NC(=O)[C@H](CC(C)C)NC(=O)C(C)(C)NC(=O)[C@H](CCC(=O)O)NC(=O)[C@H](CC(N)=O)NC(=O)[C@H](CC(C)C)NC(=O)[C@H](CC(C)C)NC(=O)[C@H](CCC(=O)O)NC(=O)[C@H](CC(C)C)NC(=O)[C@H](Cc1ccccc1)NC(=O)[C@H](CC(C)C)NC(=O)[C@H](CC(=O)O)NC(=O)[C@H](CC(C)C)NC(=O)[C@@H](NC(=O)[C@@H]1CCCN1)C(C)C)C(=O)N[C@@H](CCCCN)C(=O)N[C@@H](CCC(N)=O)C(=O)N[C@@H](CCCCN)C(=O)N[C@@H](CC(C)C)C(=O)N[C@@H](CCCCN)C(=O)O [compound 31, PVLDLFLELLNEXLEALKQKLK] (H-PVLDLFLELLNE[Aib]LEALKQKLK-OH) |
| 40 | 81 | 82 | 90 | 98 | PVLDLFRELLNELWEALKQKLK [compound 28] |
| 16 | – | 15 | 43 | 85 | CC(C)C[C@H](NC(=O)[C@H](C)NC(=O)[C@H](CCC(=O)O)NC(=O)[C@H](CC(C)C)NC(=O)C(C)(C)NC(=O)[C@H](CCC(=O)O)NC(=O)[C@H](CC(N)=O)NC(=O)[C@H](CC(C)C)NC(=O)[C@H](CCCCN)NC(=O)[C@H](CCC(=O)O)NC(=O)[C@H](CCCNC(=N)N)NC(=O)[C@H](Cc1c[nH]c2ccccc12)NC(=O)[C@H](CCC(=O)O)NC(=O)[C@H](CC(=O)O)NC(=O)[C@H](CC(C)C)NC(=O)[C@@H](NC(=O)[C@@H]1CCCN1)C(C)C)C(=O)N[C@@H](CCCCN)C(=O)N[C@@H](CCC(N)=O)C(=O)N[C@@H](CCCCN)C(=O)N[C@@H](CC(C)C)C(=O)N[C@@H](CCCCN)C(=O)O [compound 62, PVLDEWREKLNEXLEALKQKLK] (H-PVLDEWREKLNE[Aib]LEALKQKLK-OH) |
| 93 | 94 | 80 | 97 | 95 | CC(C)C[C@H](NC(=O)[C@H](C)NC(=O)[C@H](CCC(=O)O)NC(=O)[C@H](CC(C)C)NC(=O)[C@H](CC(C)C)NC(=O)[C@H](CCC(=O)O)NC(=O)[C@H](CC(N)=O)NC(=O)[C@H](CC(C)C)NC(=O)[C@H](CC(C)C)NC(=O)[C@H](CCC(=O)O)NC(=O)[C@H](CCCNC(=N)N)NC(=O)[C@H](Cc1ccccc1)NC(=O)[C@H](CC(C)C)NC(=O)[C@H](CC(=O)O)NC(=O)[C@H](CC(C)C)NC(=O)[C@@H](NC(=O)[C@@H]1CCCN1)C(C)C)C(=O)N[C@@H](CCCCN)C(=O)N[C@@H](CCC(N)=O)C(=O)N[C@@H](CCCCN)C(=O)N[C@@H](CC(C)C)C(=O)N[C@@H](CCCCN)C(=O)O [compound 4] |
| 98 | 95 | 70 | 80 | 95 | PVLDLFRELLNELLEWLKQKLK [compound 3] |
| 22 | 64 | 27 | 54 | 64 | PVLDLFRELLEELQKKLK [compound 220] |

The remaining lines, values behind:

| Molecule | ACTIVITY (%) LCAT [1] [%] | He (%) TFE [2] [%] | He (%) free [2] [%] | He (%) SUVs [2] [%] | He (%) mics [2] [%] |
| --- | --- | --- | --- | --- | --- |
| Ac-DWLKAFYDKVAEKLKEAF-NH2 [compound 240, reference compound] | 10 | 57 | 16 | 59 | 68 |
| PVLDAFRELLEALAQLKK [compound 223] | 8 | 51 | 21 | 23 | 56 |
| PLLELLKELLQELLEALKQKLK [compound 36] | 31 | 95 | 95 | – | 100 |
| Ac-PLLDLFRELLEELKQKLK-NH2 [compound 197] | 81 | 69 | 43 | – | 70 |
| PLDLFRELLNELLEALKQKLK [compound 85] | 7 | 69 | 58 | 64 | 61 |
| CC(C)C[C@H](NC(=O)[C@H](C)NC(=O)[C@H](CCC(=O)O)NC(=O)[C@H](CC(C)C)NC(=O)C(C)(C)NC(=O)[C@H](CCC(=O)O)NC(=O)[C@H](CC(N)=O)NC(=O)[C@H](CC(C)C)NC(=O)[C@H](CC(C)C)NC(=O)[C@H](Cc1c[nH]c2ccccc12)NC(=O)[C@H](CCCNC(=N)N)NC(=O)[C@H](Cc1ccccc1)NC(=O)[C@H](CC(C)C)NC(=O)[C@H](CC(=O)O)NC(=O)[C@H](CC(C)C)NC(=O)[C@@H](NC(=O)[C@@H]1CCCN1)C(C)C)C(=O)N[C@@H](CCCCN)C(=O)N[C@@H](CCC(N)=O)C(=O)N[C@@H](CCCCN)C(=O)N[C@@H](CC(C)C)C(=O)N[C@@H](CCCCN)C(=O)O [compound 108, PVLDLFRWLLNEXLEALKQKLK] (H-PVLDLFRWLLNE[Aib]LEALKQKLK-OH) | 0 | 54 | 28 | – | 55 |
| VLDLFRELLNELLEALKQKLK [compound 67] | 14 | 94 | 81 | 84 | 90 |
| PVLDLFRNLLEELLEALQKKLK [compound 66] | 15 | 70 | 64 | 66 | 82 |
| DWLKAFYDKVFEKFKEFF [peptide 245, reference compound] | 4 | – | 38 | 70 | 77 |
| Ac-PVLDLFRELLEELKQKLK-NH2 [compound 193] | 96 | 87 | 34 | 87 | 88 |
